Data set [1] concerns neonatal pooled HLMs. The data set can be described thus: Inhibition of DHEA-S metabolism. The class given is biochemical, human. The note with it: DHEA-S 50 μM, HLMs 0.05 mg/mL, lopinavir 8 μM without or with ritonavir 0.5 μM, 30 min.
In data set [2] the test system is CYP17A1. The note with it: NCI-H295R cells; cited from earlier work.
Data set [3] relates to CYP21A2. The note with it: NCI-H295R cells; cited from earlier work.
Data set [4] in a line: Lopinavir intrinsic clearance by neonatal human liver microsomes. The note with it: for mean lopinavir percent loss: lopinavir 1 μM, 30 min. The data set is classed as in vitro ADME.
Data set [5] can be described thus: Lopinavir intrinsic clearance by adult human liver microsomes. The class given is in vitro ADME.
[6] abbreviates: human, pooled neonatal human liver microsomes, pH 7.4.
[7] abbreviates: both, human, pooled adult human liver microsomes, pH 7.4.

Molecules are shown by their SMILES.

Turning to `Cc1cccc(C)c1OCC(=O)N[C@@H](Cc1ccccc1)[C@@H](O)C[C@H](Cc1ccccc1)NC(=O)[C@H](C(C)C)N1CCCNC1=O` [lopinavir], the “formation rate of 16α-hydroxy DHEA-S in neonatal HLMs” value in data set [1] amounted to 1.19 nmol/min/mg protein. In addition, the “inhibition of CYP17A1” value in data set [2] is “moderate inhibition”. For the same compound, in data set [3], the “inhibition of CYP21A2” value is recorded as “moderate inhibition”. In addition, the half-life at 1 μM in data set [4] (setting [6]) was found to be 52.1 min; in data set [5] (setting [7]) it was 7.18 min. In addition, the figures for the microsomal CLint at 1 μM in data set [4] (setting [6]) and in data set [5] (setting [7]) were 133 µL/min/mg and 4830 µL/min/mg, respectively. Also, the “mean lopinavir percent loss” value in data set [4] (neonatal HLMs 0.02 mg/mL) is 21%; in data set [4] (neonatal HLMs 0.1 mg/mL) it was 32%; in data set [5] (adult HLMs 0.02 mg/mL, lopinavir 1 μM, 30 min), “about 94%”. Besides, the “lopinavir loss in presence of ritonavir” value in data set [5] (adult HLMs 0.02 mg/mL, lopinavir 1 μM, ritonavir 62.5 nM) was “less than 20%”.
